Tests used:
[1] = tested on: NCI-1H226; assay: Mesothelioma cell line proliferation assay, H226 (ATPlite); type: cell-based; settings: Homo sapiens, NCI-H226, 144 h, 6 days with compound
Description: (§1) Mesothelioma cell lines, NCI-1H226 and NCI-1H2052 (all sourced from the ATCC cell culture collection) are plated in 96-well plates (Corning® 96 Well White Polystyrene Microplate clear flat bottom, white polystyrene (TC-Treated)), at 1500 cells/well in full medium (RPMI 1640 ATCC modification with L-glutamine, HEPES, Phenol Red, Sodium Pyruvate, High glucose, Low sodium bicarbonate and 10% fetal bovine serum). Cells are incubated overnight at 37° C. in an incubator with 5% C02. Then compounds, dissolved in DMSO, are added in dose-response. Cells are incubated with compound dilutions for another 6 days at 37° C. in an incubator with 5% C02. Cell viability is quantitated using the ATPlite kit (Perkin-Elmer) and the luminescence is read-out using an Envision instrument (Perkin-Elmer). The amount of relative light units produced using the ATPlite kit is used to calculated percent of inhibition.
(§2) The activities of some example compounds are depicted in the table below. The activity ranges A, B and C refer to EC50 values in the mesothelioma cell line proliferation assay as described as follows: “A”: EC50<1 μM; “B”: 1 μM s EC50≤10 μM and “C”: EC50≥10 μM; NT: not tested.

[2] = tested on: NCI-1H2052; assay: Mesothelioma cell line proliferation assay, H2052 (ATPlite); type: cell-based; settings: Homo sapiens, NCI-H2052, 144 h, 6 days with compound, read-out: H2025 (EC50)
Description: as §1, §2

[3] = tested on: SCC-9; assay: Cancer cell line proliferation assay (CellTiter-Glo), SCC-9; type: cell-based; settings: Homo sapiens, 144 h, Head & neck (squamous), FAT1 HOM DEL, 6 days
Description: (§3) All the cell lines are cultured in the media supplemented with 10-20% fetal bovine serum, in the temperature of 37° C., 5% CO2 and 95% humidity. The indicated cell lines (all sourced from the ATCC cell culture collection) are plated in 96-Well Flat Clear Bottom Black Polystyrene TC-Treated Microplates with the final cell density of 4×10^3 cells/well. Cells are incubated overnight and then compounds, dissolved in DMSO, are added in dose-response. Cells are incubated with compound dilutions for another 6 days. Cell viability is quantitated using CellTiter-Glo reagent (Perkin Elmer) and measured using an EnVision Multi Label Reader.

[4] = tested on: RL95-2; assay: Cancer cell line proliferation assay (CellTiter-Glo), RL95-2; type: cell-based; settings: Homo sapiens, 144 h, Endometrial (adeno-squamous), LATS1 HOM DEL, 6 days
Description: as §3

[5] = tested on: C-33 A; assay: Cancer cell line proliferation assay (CellTiter-Glo), C-33 A; type: cell-based; settings: Homo sapiens, 144 h, Cervical (squamous), L914Wfs*10 LATS2, 6 days
Description: as §3

[6] = tested on: Caov-3; assay: Cancer cell line proliferation assay (CellTiter-Glo), Caov-3; type: cell-based; settings: Homo sapiens, 144 h, Ovary, LATS2 HOM DEL, 6 days
Description: as §3

[7] = tested on: selected tumor cell lines; assay: Cancer cell line proliferation assays, whole panel of selected tumor cell lines; type: cell-based; settings: cancer cell lines of Table 5
Description: as §3

[8] = tested on: NCI-H226 tumor cells; assay: In vivo efficacy in a subcutaneous human lung cancer xenograft model (NCI-H226 mesothelioma); set-up: species or system Female BALB/c Nude Mice; settings: 100 mg/kg, p.o., BID × 21 days
Description: The NCI-H226 tumor cells were maintained in vitro with RPMI-1640 medium supplemented with 10% fetal bovine serum at 37° C. in an atmosphere of 5% CO2 in air. The cells in exponential growth phase were harvested and the cell numbers were quantitated by hemocytometer and cell viability was quantified by Trypan Blue counting before tumor inoculation. Balb/c nude mouse were inoculated with subcutaneously in the right front flank regions with 1×10^7 of NCI-H226 tumor cells in 0.1 mL of PBS mixed with 0.1 ml of Matrigel (1:1) for tumor development. All animals were randomized based on the tumor sizes as well as body weights and randomly allocated to the different study groups (8 mice per group). The randomization started when the mean tumor size at the right rear flank region had reached approximately 172 mm^3. The date of randomization was denoted as Day 0.
Cpd. No. 084 was formulated in Vehicle 1 (PEG400 (40%)+PG (30%)+WFI (30%)) as a 10 mg/ml solution, and dosed orally, twice daily, using 10 μl/g (final dose is 100 mg/kg) for 21 days. Cpd. No. 001 was formulated in Vehicle 2 (PEG400 (65%)+PG (20%)+WFI (15%)) as a 10 mg/ml solution, and dosed orally, twice daily, using 10 μl/g (final dose is 100 mg/kg) for 21 days. After tumor cell inoculation, the animals were checked daily for morbidity and mortality. At the time of routine monitoring, the animals were checked for any effects of tumor growth and treatments on behavior such as mobility, food and water consumption, body weight gain/loss (body weight was measured at least two times per week), and any other abnormalities. Mortality and observed clinical signs were recorded for individual animals. Tumor volumes were measured at least two times weekly in two dimensions using a caliper, and the volume was expressed in mm^3 using the formula: V=(L×W×W)/2, where V is tumor volume, L is tumor length (the longest tumor dimension) and W is tumor width (the longest tumor dimension perpendicular to L).
Tumor growth inhibition (TGI) was used as an indicator of antitumor activities, and was calculated from the relative tumor volumes of the control and treatment groups due to the variance of tumor volumes among groups at Day 0. TGI (%)=(1-T/C)×100%; T/C=MTVt/MTVc, MTVt: mean tumor volume in the treatment groups at a specific measurement day, MTVc: mean tumor volume in the control group at a specific measurement day. Moreover, the difference of TGIs between control and treatment groups was analyzed at a measurement day when all or most of the mice in the control groups were alive. In addition, body weight changes over time in each group were used as an index to evaluate the tolerability of test drugs, and were calculated from the average percentage of body weight changes of each individual mouse relative to their initial body weight at randomization using the following formula: group BW %=mean of ((BWt−BW0)/BW0×100%), BWt: body weight at Day t, BW0: body weight at Day 0.
To compare relative tumor volumes of different groups at a pre-specified day, we first used Bartlett's test to check the assumption of homogeneity of variance across all groups. When the p-value of Bartlett's test is >0.05, we run one-way ANOVA to test overall equality of means across all groups. If the p-value of the one-way ANOVA is <0.05, we further perform post hoc testing by running Tukey's HSD (honest significant difference) tests for all pairwise comparisons, and Dunnett's tests for comparing each treatment group with the vehicle group. When the p-value of Bartlett's test is <0.05, we run Kruskal-Wallis test to test overall equality of medians among all groups. If the p-value of the Kruskal-Wallis test is <0.05, we further perform post hoc testing by running Conover's non-parametric test for all pairwise comparisons or for comparing each treatment group with the vehicle group, both with single-step p-value adjustment. All tests were two-sided unless otherwise specified, and p-values<0.05 were regarded as statistically significant. […]

[9] = day 20, against the compound's own vehicle group

In the case of `C=CC(=O)NC1Cc2ccccc2N(c2ccc(C(F)(F)F)cc2)C1` (centres unmarked) [compound 001, N-(1-(4-(trifluoromethyl)phenyl)-1,2,3,4-tetrahydroquinolin-3-yl)acrylamide], the EC50 [1] is reported as < 1000 nM, the EC50 [2] is reported as < 1000 nM and the GI50 [3] is reported as 50 nM. The GI50 [4] was 50 nM, the GI50 [5] was 100 nM and the GI50 [6] was 110 nM. The “inhibitory activity on the cell proliferation of the selected tumor cell lines” value [7] was “strong inhibitory activity”, the “anti-tumor activity in the xenograft mesothelioma model” value [8] was “highly statistically significant and strong anti-tumor activity” and the “Mean Tumor Volume (mm^3) on day 20” value ([8]; day 20, 8 mice per group) was 217.26 ± 45.21 (8) mm^3. The “T/C (%)” value [8, 9] was 49.62% and the “TGI (%)” value [8, 9] was 50.38%.

Reference: patent US20240025856A1, “1,2,3,4-TETRAHYDROQUINOLINE DERIVATIVES AS INHIBITORS OF THE YAP/TAZ-TEAD ACTIVATION FOR TREATING CANCER” (KATHOLIEKE UNIVERSITEIT LEUVEN, priority 2020, published 2024)
